# According to patent publication US12157746B2, “Tetrahydro-1H-pyrazino[2,1-a]isoindolylquinoline compounds for the treatment of autoimmune disease” (F. HOFFMANN-LA ROCHE AG, priority 2018, dated 2024):
# Target: T1, human TLR7 (Homo sapiens, UniProt Q9NYK1)
# T1 sequence (Q9NYK1 27-1049): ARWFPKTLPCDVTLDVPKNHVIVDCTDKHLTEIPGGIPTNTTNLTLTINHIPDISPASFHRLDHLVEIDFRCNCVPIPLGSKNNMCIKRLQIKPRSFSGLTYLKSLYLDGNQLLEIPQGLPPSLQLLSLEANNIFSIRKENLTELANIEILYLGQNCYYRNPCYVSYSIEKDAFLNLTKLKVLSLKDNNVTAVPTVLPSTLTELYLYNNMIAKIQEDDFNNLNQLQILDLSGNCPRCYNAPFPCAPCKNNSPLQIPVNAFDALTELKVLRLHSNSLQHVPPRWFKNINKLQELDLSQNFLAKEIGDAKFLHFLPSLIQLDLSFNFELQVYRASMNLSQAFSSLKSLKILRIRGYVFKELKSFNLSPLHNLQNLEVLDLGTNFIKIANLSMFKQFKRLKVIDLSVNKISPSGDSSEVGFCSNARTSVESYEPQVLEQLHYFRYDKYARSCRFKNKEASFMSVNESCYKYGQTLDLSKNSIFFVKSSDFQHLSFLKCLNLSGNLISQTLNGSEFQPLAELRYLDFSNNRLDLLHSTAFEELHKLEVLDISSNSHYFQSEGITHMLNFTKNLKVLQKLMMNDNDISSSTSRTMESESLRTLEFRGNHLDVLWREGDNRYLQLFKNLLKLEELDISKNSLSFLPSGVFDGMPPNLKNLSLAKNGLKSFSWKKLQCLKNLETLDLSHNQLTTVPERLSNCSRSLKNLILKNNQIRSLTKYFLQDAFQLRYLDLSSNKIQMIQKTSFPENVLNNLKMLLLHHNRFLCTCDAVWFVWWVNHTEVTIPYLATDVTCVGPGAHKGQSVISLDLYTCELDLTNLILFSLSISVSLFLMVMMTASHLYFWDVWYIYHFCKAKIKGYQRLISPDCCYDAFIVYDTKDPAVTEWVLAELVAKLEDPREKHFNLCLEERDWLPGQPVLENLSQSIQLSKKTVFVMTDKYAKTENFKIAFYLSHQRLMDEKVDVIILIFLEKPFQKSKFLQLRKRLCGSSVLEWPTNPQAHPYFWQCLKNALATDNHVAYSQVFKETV
# Test: HEK293-Blue-hTLR-7 cells assay
# Assay type: cell-based
# Conditions: HEK293-Blue-hTLR7 cells, R848 stimulation, 20 hrs, SEAP reporter; read-out: HEK/hTLR7 IC50
# Method in brief: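 HEK293-Blue-hTLR7 cells (NF-κB/AP-1-driven SEAP reporter) incubated with serially diluted compound (1% DMSO final) and R848 agonist for 20 h at 37 °C. Supernatant SEAP measured with QUANTI-Blue (2 h, 37 °C) by absorbance at 620-655 nm; antagonism seen as reduced reporter.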
row,Structure (SMILES),IC50
1,"C[C@@H]1CN(c2ccc(C#N)c3ncccc23)C[C@@H]2c3ccc(NC[C@@H]4C[C@H](F)CN4)cc3CN12 [Example 70, 5-[(4R,10bS)-8-[[(2S,4S)-4-fluoropyrrolidin-2-yl]methylamino]-4-methyl-3,4,6,10b-tetrahydro-1H-pyrazino[2,1-a]isoindol-2-yl]quinoline-8-carbonitrile]",9 nM
2,"C[C@@H]1CN(c2ccc(C#N)c3ncccc23)C[C@@H]2c3ccc(NCC4(F)CNC4)cc3CN12 [Example 69, 5-[(4R,10bS)-8-[(3-fluoroazetidin-3-yl)methylamino]-4-methyl-3,4,6,10b-tetrahydro-1H-pyrazino[2,1-a]isoindol-2-yl]quinoline-8-carbonitrile]",18.2 nM
3,"C[C@@H]1CN(c2ccc(C(F)(F)F)c3nccnc23)C[C@@H]2c3ccc(N[C@H]4CNC[C@H]4F)cc3CN12 [Example 77, (4R,10bS)—N-[(3S,4R)-4-fluoropyrrolidin-3-yl]-4-methyl-2-[8-(trifluoromethyl)quinoxalin-5-yl]-3,4,6,10b-tetrahydro-1H-pyrazino[2,1-a]isoindol-8-amine]",12.6 nM
4,"Cc1ccc(N2C[C@@H](C)N3Cc4cc(N[C@H]5CNC[C@H]5F)ccc4[C@H]3C2)c2cccnc12 [Example 75, (4R,10bS)—N-[(3S,4R)-4-fluoropyrrolidin-3-yl]-4-methyl-2-(8-methyl-5-quinolyl)-3,4,6,10b-tetrahydro-1H-pyrazino[2,1-a]isoindol-8-amine]",47.8 nM
5,"N#Cc1ccc(N2CCN3Cc4cc(N5CCNCC5)ccc4C3C2)c2cccnc12 (stereo not shown) [Example 3, 5-(8-piperazin-1-yl-3,4,6,10b-tetrahydro-1H-pyrazino[2,1-a]isoindol-2-yl)quinoline-8-carbonitrile]",42.6 nM
6,"C[C@H]1CN(c2ccc(C#N)c3ncccc23)C[C@H]2c3ccc(N4CCNCC4)cc3CN12 [Example 2, 5-[(4S,10bR)-4-methyl-8-piperazin-1-yl-3,4,6,10b-tetrahydro-1H-pyrazino[2,1-a]isoindol-2-yl]quinoline-8-carbonitrile]",71.5 nM
7,"Cc1ccc(N2C[C@@H](C)N3Cc4cc(N[C@H]5CNC[C@H]5F)ccc4[C@H]3C2)c2nccnc12 [Example 76, (4R,10bS)—N-[(3S,4R)-4-fluoropyrrolidin-3-yl]-4-methyl-2-(8-methylquinoxalin-5-yl)-3,4,6,10b-tetrahydro-1H-pyrazino[2,1-a]isoindol-8-amine]",22.8 nM
8,"C[C@@H]1CN(c2ccc(C#N)c3ncccc23)C[C@@H]2c3cccc(NCCN4CC[C@H](O)C4)c3CN12 [Example 80, 5-[(4R,10bS)-7-[2-[(3S)-3-hydroxypyrrolidin-1-yl]ethylamino]-4-methyl-3,4,6,10b-tetrahydro-1H-pyrazino[2,1-a]isoindol-2-yl]quinoline-8-carbonitrile]",17.9 nM
9,"C[C@@H]1CN(c2ccc(Cl)c3ncccc23)C[C@@H]2c3ccc(N[C@H]4CNC[C@H]4F)cc3CN12 [Example 79, (4R,10b)-2-(8-chloro-5-quinolyl)-N-[(3S,4R)-4-fluoropyrrolidin-3-yl]-4-methyl-3,4,6,10b-tetrahydro-1H-pyrazino[2,1-a]isoindol-8-amine]",7.6 nM

# Second part, the compound after the results:
row,IC50,Structure (SMILES)
1,< 3.2 nM,"C[C@@H]1CN(c2ccc(C#N)c3ncccc23)C[C@@H]2c3ccc(N4C[C@@H]5CNCCN5C4=O)cc3CN12 [Example 71, 5-[(4R,10bS)-8-[(8aS)-3-oxo-1,5,6,7,8,8a-hexahydroimidazo[1,5-a]pyrazin-2-yl]-4-methyl-3,4,6,10b-tetrahydro-1H-pyrazino[2,1-a]isoindol-2-yl]quinoline-8-carbonitrile]"
2,3.9 nM,"C[C@@H]1CN(c2ccc(C#N)c3ncccc23)C[C@@H]2c3ccc(OC[C@@H]4C[C@H](F)CN4)cc3CN12 [Example 74, 5-[(4R,10bS)-8-[[(2S,4S)-4-fluoropyrrolidin-2-yl]methoxy]-4-methyl-3,4,6,10b-tetrahydro-1H-pyrazino[2,1-a]isoindol-2-yl]quinoline-8-carbonitrile]"
3,< 3.2 nM,"C[C@@H]1CN(c2ccc(C#N)c3ncccc23)C[C@@H]2c3ccc(NC[C@@H]4CNCCO4)cc3CN12 [Example 58, 5-[(4R,10bS)-4-methyl-8-[[(2S)-morpholin-2-yl]methylamino]-3,4,6,10b-tetrahydro-1H-pyrazino[2,1-a]isoindol-2-yl]quinoline-8-carbonitrile]"
4,4.5 nM,"C[C@@H]1CN(c2ccc(C#N)c3ncccc23)C[C@@H]2c3ccc(N[C@H]4CNCCOC4)cc3CN12 [Example 56B, 5-[(4R,10bS)-4-methyl-8-[[(6S)-1,4-oxazepan-6-yl]amino]-3,4,6,10b-tetrahydro-1H-pyrazino[2,1-a]isoindol-2-yl]quinoline-8-carbonitrile]"
5,3.3 nM,"C[C@@H]1CN(c2ccc(C#N)c3ncccc23)C[C@@H]2c3ccc(NCCN4CC[C@H](O)C4)cc3CN12 [Example 68, 5-[(4R,10bS)-8-[2-[(3S)-3-hydroxypyrrolidin-1-yl]ethylamino]-4-methyl-3,4,6,10b-tetrahydro-1H-pyrazino[2,1-a]isoindol-2-yl]quinoline-8-carbonitrile]"
6,< 3.2 nM,"CO[C@H]1CNCC[C@H]1Nc1ccc2c(c1)CN1[C@H](C)CN(c3ccc(C#N)c4ncccc34)C[C@H]21 [Example 66, 5-[(4R,10bS)-8-[[(3S,4R)-3-methoxy-4-piperidyl]amino]-4-methyl-3,4,6,10b-tetrahydro-1H-pyrazino[2,1-a]isoindol-2-yl]quinoline-8-carbonitrile]"
7,2.9 nM,"[2H]c1ccc2c(N3C[C@@H](C)N4Cc5cc(N6CC7(CNCCO7)C6)ccc5[C@H]4C3)ccc(C#N)c2n1 [Example 90, 5-[(4R,10bS)-4-methyl-8-(5-oxa-2,8-diazaspiro[3.5]nonan-2-yl)-3,4,6,10b-tetrahydro-1H-pyrazino[2,1-a]isoindol-2-yl]-2-deuterio-quinoline-8-carbonitrile]"
8,6.9 nM,"C[C@@H]1CN(c2ccc(C#N)c3ncccc23)C[C@@H]2c3cc(F)c(N4CC5CNCC(C4)O5)cc3CN12 [Example 85, 5-[(4R,10bS)-9-fluoro-4-methyl-8-(9-oxa-3,7-diazabicyclo[3.3.1]nonan-3-yl)-3,4,6,10b-tetrahydro-1H-pyrazino[2,1-a]isoindol-2-yl]quinoline-8-carbonitrile]"
9,1.2 nM,"C[C@@H]1CN(c2ccc(C#N)c3ncsc23)C[C@@H]2c3ccc(N[C@H]4CNC[C@H]4F)cc3CN12 [Example 78, 7-[(4R,10bS)-8-[[(3S,4R)-4-fluoropyrrolidin-3-yl]amino]-4-methyl-3,4,6,10b-tetrahydro-1H-pyrazino[2,1-a]isoindol-2-yl]-1,3-benzothiazole-4-carbonitrile]"
10,< 3.2 nM,"C[C@@H]1CN(c2ccc(C#N)c3ncccc23)C[C@@H]2c3ccc(N4C[C@H]5CNCCN5C4=O)cc3CN12 [Example 72, 5-[(4R,10bS)-8-[(8aR)-3-oxo-1,5,6,7,8,8a-hexahydroimidazo[1,5-a]pyrazin-2-yl]-4-methyl-3,4,6,10b-tetrahydro-1H-pyrazino[2,1-a]isoindol-2-yl]quinoline-8-carbonitrile]"
11,< 3.2 nM,"C[C@@H]1CN(c2ccc(C#N)c3ncccc23)C[C@@H]2c3ccc(NC[C@H]4CNCCO4)cc3CN12 [Example 59, 5-[(4R,10bS)-4-methyl-8-[[(2R)-morpholin-2-yl]methylamino]-3,4,6,10b-tetrahydro-1H-pyrazino[2,1-a]isoindol-2-yl]quinoline-8-carbonitrile]"
12,3.2 nM,"CO[C@@H]1CNC[C@@H]1Nc1ccc2c(c1)CN1[C@H](C)CN(c3ccc(C#N)c4ncccc34)C[C@H]21 [Example 60, 5-[(4R,10bS)-8-[[(3S,4R)-4-methoxypyrrolidin-3-yl]amino]-4-methyl-3,4,6,10b-tetrahydro-1H-pyrazino[2,1-a]isoindol-2-yl]quinoline-8-carbonitrile]"
13,7.4 nM,"C[C@@H]1CN(c2ccc(C#N)c3ncccc23)C[C@@H]2c3cccc(N[C@H]4CNC[C@H]4F)c3CN12 [Example 81, 5-[(4R,10bS)-7-[[(3S,4R)-4-fluoropyrrolidin-3-yl]amino]-4-methyl-3,4,6,10b-tetrahydro-1H-pyrazino[2,1-a]isoindol-2-yl]quinoline-8-carbonitrile]"
